Measured values from PMC9299122, “Terpene synthases in cucumber (Cucumis sativus) and their contribution to herbivore‐induced volatile terpenoid emission” (The New Phytologist, 2021).

What was measured:
Experiment in all cases: product formation, stir-bar GC-MS, recombinant E. coli protein
Format in all cases: cell-based
CsTPS24 = biological target: T1, CsTPS24 (Cucumis sativus, UniProt Q9FRX5); settings: 30 °C, 60 min
T1 construct: gene CsKS1; full-length cDNA in pACYCDuet, E. coli BL21(DE3); gene on chromosome VII; predicted plastid transit peptide
T1 sequence (Q9FRX5 1-785): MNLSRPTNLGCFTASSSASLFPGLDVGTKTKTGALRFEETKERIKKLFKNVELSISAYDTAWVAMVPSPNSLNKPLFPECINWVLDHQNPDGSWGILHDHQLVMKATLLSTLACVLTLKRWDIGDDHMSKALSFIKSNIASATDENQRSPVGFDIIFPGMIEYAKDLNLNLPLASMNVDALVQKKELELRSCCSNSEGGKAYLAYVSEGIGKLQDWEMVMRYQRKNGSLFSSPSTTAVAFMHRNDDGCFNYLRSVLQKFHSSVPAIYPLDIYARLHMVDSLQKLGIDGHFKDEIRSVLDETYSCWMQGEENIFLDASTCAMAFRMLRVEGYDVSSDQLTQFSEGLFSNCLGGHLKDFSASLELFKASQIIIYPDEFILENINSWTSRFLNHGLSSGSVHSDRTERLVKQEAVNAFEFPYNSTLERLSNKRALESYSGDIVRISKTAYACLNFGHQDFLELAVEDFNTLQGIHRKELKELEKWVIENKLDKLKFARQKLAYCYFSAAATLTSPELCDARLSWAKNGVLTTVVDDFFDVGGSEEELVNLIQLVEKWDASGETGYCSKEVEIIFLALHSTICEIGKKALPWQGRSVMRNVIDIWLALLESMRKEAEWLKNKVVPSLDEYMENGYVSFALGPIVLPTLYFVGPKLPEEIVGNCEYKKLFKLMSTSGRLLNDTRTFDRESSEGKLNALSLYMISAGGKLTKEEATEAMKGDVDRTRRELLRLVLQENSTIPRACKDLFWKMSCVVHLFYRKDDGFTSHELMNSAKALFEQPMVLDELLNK

CsTPS19 = biological target: T2, CsTPS19 (Cucumis sativus, UniProt A0A0A0L6G4); settings: 30 °C, 60 min; 10 µM substrate
T2 construct: gene Csa_3G095040; full-length cDNA in pACYCDuet, E. coli BL21(DE3); cytosolic

CsTPS14 = biological target: T3, CsTPS14 (Cucumis sativus, UniProt A0A0A0L1X6); settings: 30 °C, 60 min; 10 µM substrate
T3 construct: gene Csa_3G039850; full-length cDNA in pACYCDuet, E. coli BL21(DE3); no targeting peptide predicted
T3 sequence (A0A0A0L1X6 1-562): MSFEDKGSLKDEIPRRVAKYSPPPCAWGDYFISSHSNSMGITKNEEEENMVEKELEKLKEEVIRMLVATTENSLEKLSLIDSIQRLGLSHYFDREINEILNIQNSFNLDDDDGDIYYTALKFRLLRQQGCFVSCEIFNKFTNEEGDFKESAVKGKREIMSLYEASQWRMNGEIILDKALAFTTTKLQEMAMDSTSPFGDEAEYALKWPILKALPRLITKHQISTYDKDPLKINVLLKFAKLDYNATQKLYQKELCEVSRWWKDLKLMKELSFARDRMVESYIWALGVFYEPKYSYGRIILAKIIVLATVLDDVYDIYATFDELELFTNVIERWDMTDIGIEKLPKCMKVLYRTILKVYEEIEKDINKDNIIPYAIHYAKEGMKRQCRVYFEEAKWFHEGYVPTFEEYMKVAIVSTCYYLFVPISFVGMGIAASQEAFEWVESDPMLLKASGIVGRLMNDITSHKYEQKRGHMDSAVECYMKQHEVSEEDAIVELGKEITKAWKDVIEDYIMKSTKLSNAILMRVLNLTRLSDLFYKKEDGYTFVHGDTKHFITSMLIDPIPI

CsTPS12 = biological target: T4, CsTPS12 (Cucumis sativus, UniProt A0A0A0LN25); settings: 30 °C, 60 min; 10 µM substrate
T4 construct: gene Csa_2G427840; full-length cDNA in pACYCDuet, E. coli BL21(DE3); no targeting peptide predicted
T4 sequence (A0A0A0LN25 1-565): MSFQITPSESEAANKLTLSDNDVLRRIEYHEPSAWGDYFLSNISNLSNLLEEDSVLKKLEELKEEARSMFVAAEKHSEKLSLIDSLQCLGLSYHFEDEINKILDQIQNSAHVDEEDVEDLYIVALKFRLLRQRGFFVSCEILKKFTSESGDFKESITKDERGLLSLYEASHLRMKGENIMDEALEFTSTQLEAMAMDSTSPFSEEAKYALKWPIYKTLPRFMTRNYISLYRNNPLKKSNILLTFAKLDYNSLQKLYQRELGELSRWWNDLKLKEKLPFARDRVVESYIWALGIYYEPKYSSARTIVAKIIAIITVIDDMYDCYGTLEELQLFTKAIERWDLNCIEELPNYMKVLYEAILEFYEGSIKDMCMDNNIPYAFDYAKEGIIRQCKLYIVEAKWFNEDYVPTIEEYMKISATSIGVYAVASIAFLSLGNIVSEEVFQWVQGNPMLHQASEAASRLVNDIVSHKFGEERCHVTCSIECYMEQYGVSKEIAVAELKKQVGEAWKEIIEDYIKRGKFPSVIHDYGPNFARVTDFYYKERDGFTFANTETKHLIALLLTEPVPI

CsTPS22 = biological target: T5, CsTPS22 (Cucumis sativus, UniProt A0A0A0L2I8); settings: 30 °C, 60 min; 10 µM substrate
T5 construct: gene Csa_3G097540; full-length cDNA in pACYCDuet, E. coli BL21(DE3)
T5 sequence (A0A0A0L2I8 1-558): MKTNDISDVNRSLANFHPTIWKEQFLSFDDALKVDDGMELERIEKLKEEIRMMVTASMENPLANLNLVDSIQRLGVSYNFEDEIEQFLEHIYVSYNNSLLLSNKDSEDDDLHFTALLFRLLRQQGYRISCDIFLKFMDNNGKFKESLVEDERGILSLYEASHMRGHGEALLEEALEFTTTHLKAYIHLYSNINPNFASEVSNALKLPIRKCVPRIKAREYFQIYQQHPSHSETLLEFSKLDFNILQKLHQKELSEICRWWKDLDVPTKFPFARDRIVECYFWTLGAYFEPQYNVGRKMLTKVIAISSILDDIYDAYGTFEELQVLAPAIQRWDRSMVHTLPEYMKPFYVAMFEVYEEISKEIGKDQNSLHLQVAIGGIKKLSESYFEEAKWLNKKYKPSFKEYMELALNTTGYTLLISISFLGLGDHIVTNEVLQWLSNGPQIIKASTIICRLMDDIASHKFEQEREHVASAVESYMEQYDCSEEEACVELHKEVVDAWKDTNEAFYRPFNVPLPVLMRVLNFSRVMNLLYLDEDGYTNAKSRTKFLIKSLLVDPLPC

CsTPS15 = biological target: T6, CsTPS15 (Cucumis sativus, UniProt A0A0A0L782); settings: 30 °C, 60 min; 10 µM substrate
T6 construct: gene Csa_3G040850; full-length cDNA in pACYCDuet, E. coli BL21(DE3); predicted plastid transit peptide
T6 sequence (A0A0A0L782 1-568): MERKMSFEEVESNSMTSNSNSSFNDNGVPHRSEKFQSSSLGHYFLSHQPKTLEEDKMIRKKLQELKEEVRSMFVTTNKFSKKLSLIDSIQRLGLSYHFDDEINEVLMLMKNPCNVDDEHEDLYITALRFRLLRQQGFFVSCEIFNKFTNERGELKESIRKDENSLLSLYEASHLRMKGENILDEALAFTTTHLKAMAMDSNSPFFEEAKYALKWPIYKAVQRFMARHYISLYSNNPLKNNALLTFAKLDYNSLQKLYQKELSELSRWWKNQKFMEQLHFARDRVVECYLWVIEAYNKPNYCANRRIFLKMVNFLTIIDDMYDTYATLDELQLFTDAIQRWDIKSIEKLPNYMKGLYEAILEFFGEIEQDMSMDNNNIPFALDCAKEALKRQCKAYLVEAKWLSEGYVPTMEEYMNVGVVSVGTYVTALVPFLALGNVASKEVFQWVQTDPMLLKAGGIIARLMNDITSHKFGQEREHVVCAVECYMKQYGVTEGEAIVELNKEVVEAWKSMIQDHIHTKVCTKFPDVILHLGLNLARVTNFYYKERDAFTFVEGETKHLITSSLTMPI

CsTPS11 = biological target: T7, CsTPS11 (Cucumis sativus, UniProt A0A0A0LMX2); settings: 30 °C, 60 min; 10 µM substrate
T7 construct: gene Csa_2G299920; full-length cDNA in pACYCDuet, E. coli BL21(DE3); predicted plastid transit peptide
T7 sequence (A0A0A0LMX2 1-474): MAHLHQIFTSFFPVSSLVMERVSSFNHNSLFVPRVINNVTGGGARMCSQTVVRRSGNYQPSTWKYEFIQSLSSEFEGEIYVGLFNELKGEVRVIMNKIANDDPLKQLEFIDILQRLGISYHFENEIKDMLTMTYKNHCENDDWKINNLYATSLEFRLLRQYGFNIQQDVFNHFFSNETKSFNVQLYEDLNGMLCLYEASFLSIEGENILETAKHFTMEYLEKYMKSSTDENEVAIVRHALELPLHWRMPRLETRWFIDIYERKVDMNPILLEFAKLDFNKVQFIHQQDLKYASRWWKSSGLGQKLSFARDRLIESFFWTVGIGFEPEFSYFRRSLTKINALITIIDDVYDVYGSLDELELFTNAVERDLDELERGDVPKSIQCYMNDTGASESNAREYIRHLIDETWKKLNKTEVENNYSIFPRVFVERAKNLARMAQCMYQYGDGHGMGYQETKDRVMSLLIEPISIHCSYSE

T2 sequence (A0A0A0L6G4 entry or part of it): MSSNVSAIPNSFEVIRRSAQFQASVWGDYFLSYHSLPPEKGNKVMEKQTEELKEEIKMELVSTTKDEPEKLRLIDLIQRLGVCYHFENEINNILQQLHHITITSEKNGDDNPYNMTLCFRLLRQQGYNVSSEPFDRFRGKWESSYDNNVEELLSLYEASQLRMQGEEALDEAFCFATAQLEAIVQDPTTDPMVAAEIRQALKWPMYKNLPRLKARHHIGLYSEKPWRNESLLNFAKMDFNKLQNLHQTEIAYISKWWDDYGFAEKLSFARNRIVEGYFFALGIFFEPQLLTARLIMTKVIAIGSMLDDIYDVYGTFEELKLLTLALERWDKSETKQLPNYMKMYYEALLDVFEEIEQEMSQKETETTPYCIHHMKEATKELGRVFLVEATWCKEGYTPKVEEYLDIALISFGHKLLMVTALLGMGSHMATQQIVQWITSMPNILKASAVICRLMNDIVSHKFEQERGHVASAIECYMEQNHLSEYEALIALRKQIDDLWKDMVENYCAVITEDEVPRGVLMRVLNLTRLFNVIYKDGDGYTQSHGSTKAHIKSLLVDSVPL

| SMILES | product formation, stir-bar GC-MS, recombinant E. coli protein (CsTPS24; 10 µM substrate) | product formation, stir-bar GC-MS, recombinant E. coli protein (CsTPS19) | product formation, stir-bar GC-MS, recombinant E. coli protein (CsTPS14) | product formation, stir-bar GC-MS, recombinant E. coli protein (CsTPS12) | product formation, stir-bar GC-MS, recombinant E. coli protein (CsTPS22) | product formation, stir-bar GC-MS, recombinant E. coli protein (CsTPS24) | product formation, stir-bar GC-MS, recombinant E. coli protein (CsTPS15) | product formation, stir-bar GC-MS, recombinant E. coli protein (CsTPS11) |
| --- | --- | --- | --- | --- | --- | --- | --- | --- |
| CC(C)=CCC/C(C)=C/CC/C(C)=C/COP(=O)(O)OP(=O)(O)O [FPP] | both enzymes produced (E)‐nerolidol from FPP | CsTPS19 predominantly catalysed the formation of (E,E)‐α‐farnesene from FPP | CsTPS12, CsTPS14 and CsTPS17, which all catalysed the formation of (E)‐β‐farnesene | CsTPS12, CsTPS14 and CsTPS17, which all catalysed the formation of (E)‐β‐farnesene | the major products of CsTPS22 were (E)‐nerolidol and cadinol |  |  |  |
| CC(C)=CCC/C(C)=C/CC/C(C)=C/CC/C(C)=C/COP(=O)(O)OP(=O)(O)O [GGPP] |  |  |  |  |  | only CsTPS24 accepted GGPP to produce geranyl linalool |  |  |
| CC(C)=CCC/C(C)=C/COP(=O)(O)OP(=O)(O)O [GPP] |  | CsTPS19 which efficiently catalysed the formation of (E)‐β‐ocimene, myrcene and linalool from GPP |  |  |  |  | CsTPS11 and CsTPS15 both catalysed the formation of myrcene, limonene | CsTPS11 and CsTPS15 both catalysed the formation of myrcene, limonene |
